# From patent US20240261243A1, “NITRIC OXIDE DONORS, COMPOSITIONS, AND METHODS OF USE” (priority 2020, published 2024)
# Test system: P. aeruginosa strain PAK
# Method: Determined the MIC of each test article individually against the strains being tested using the CLSI MIC/MBC method.
# Test articles are added to a 96-well plate so that when a 2× bacterial culture (prepared to 10^6 CFU/ml) is added, the final concentration in all wells was 1×.
# All test articles are prepared at 4×→diluted 1:1 when other TA is added (2×), and diluted 1:1 again to 1× when bacteria are added
# Plates were incubated at 37° C. for 18-24 h.
# The Checkerboard assay (described herein) was used with a hepta-substituted cyclodextrin-based NO donor (hereinafter referred to as BIOC76) having approximately ˜4.7 μmol NO/mg dry powder.
# Experimental Design: The MIC of BIOC76 and Gallium nitrate individually, then set up a checkerboard assay testing 49 combinations of BIOC76 and Gallium nitrate concentrations against 10^6 CFU/ml P. aeruginosa strain PAK. Plates were incubated at 37° C. for 18-24 h, and growth was assessed visually.
compound,measurement,setting,value
O=NN(O)N(CCO)CC1OC2OC3C(CN(CCO)N(O)N=O)OC(OC4C(CN(CCO)N(O)N=O)OC(OC5C(CN(CCO)N(O)N=O)OC(OC6C(CN(CCO)N(O)N=O)OC(OC7C(CN(CCO)N(O)N=O)OC(OC8C(CN(CCO)N(O)N=O)OC(OC1C(O)C2O)C(O)C8O)C(O)C7O)C(O)C6O)C(O)C5O)C(O)C4O)C(O)C3O (centres unmarked) [BIOC76],MIC BIOC76 alone,,1000 µg/mL
same,MIC BIOC76 combo,in combination with Ga(NO3)3,125 µg/mL
